Experimental data as given in US5097013A, “Novel peptides possessing a macrophage chemotactic activity” (Kao Corporation, priority 1988, dated 1992).
Square brackets hold non-standard residues; d marks the D form. Peptide text beside a SMILES is read from it. * marks the point of attachment. Fmoc = O=C(OCC1c2ccccc2-c2ccccc21)*; dNle = CCCC[C@@H](N)C(=O)O

system: macrophage (peritoneal exudate cells); assay: Macrophage chemotactic activity, 48 well chemotaxis chamber; format: cell-based, guinea pig; conditions: Table 2; test described in Example 64; relative scale, Compound No. 1 = 100
Protocol: Macrophage chemotactic activity in the examples was determined as follows.
Peritoneal exudate cells (usually more than 95% were macrophage) collected from guinea pig in which liquid paraffin had previously been peritoneally injected 3 or 4 days before were used as macrophage in a cell concentration of 2×10^6 /ml.
A sample which activity was to be determined was charged in lower wells of a 48 well chemotaxis chamber and a polycarbonate membrane having a pore size of 5 μm was put thereon, and the macrophage suspension was charged in upper wells followed by incubation at 37° C. for 90 minutes in a CO2 incubator. After the incubation, adherent cells on the non-chemotactic surface was removed, fixed and subjected to Giemsa staining and then to inclusion treatment. Then, the cells on the chemotactic surface were microscopically (×400) counted and the cell count was made MCF activity.
The peptide synthesized in Example 5 was dissolved in 5 mM MgCl2 and the solution was suitably diluted with 0.5% FCS-containing Hanks' medium.

Row | Compound | Activity (macrophage chemotactic activity)
1 | H-FLGREDGSE-OH [Compound 7] | < 10
2 | H-KWLGREDGSE-OH [Compound 3] | 80
3 | H-L-Trp-L-AIa-Gly-L-Arg-L-Glu-L-Asp-Gly-L-Ser-L-Glu-NH2 [Compound 44] | < 10
4 | H-W[dL]GREDGSE-OH [Compound 37] | < 10
5 | H-WLG[dR]EDGSE-OH [Compound 14] | 80
6 | H-WGGREDGSE-OH [Compound 52] | < 10
7 | H-WLGREDGCE-OH [Compound 17] | < 10
8 | H-LGREDGSE-OH [Compound 51] | < 10
9 | H-WIIREDGSE-OH [Compound 43] | < 10
10 | H-WLGREDGS-OH [Compound 21] | 10
11 | H-WAGRED-OH [Compound 42] | < 10
12 | H-WLGREDGLL-NH2 [Compound 46] | < 10
13 | CC(C)C[C@H](NC(=O)[C@H](Cc1c[nH]c2ccccc12)NC(=O)OCC1c2ccccc2-c2ccccc21)C(=O)NCC(=O)N[C@@H](CCCNC(=N)N)C(=O)N[C@@H](CCC(=O)O)C(=O)N[C@@H](CC(=O)O)C(=O)O [Compound 29, Fmoc-L-Trp-L-Leu-Gly-L-Arg-L-Glu-L-Asp-OH] (Fmoc-WLGRED-OH) | < 10
14 | H-WLGRGDGSE-OH [Compound 48, H-L-Trp-L-Leu-Gly-L-Arg-Gly-L-Asp-Gly-L-Ser-L-Glu-OH] | < 10
15 | CC(C)C[C@H](NC(=O)[C@H](Cc1c[nH]c2ccccc12)NC(=O)OCC1c2ccccc2-c2ccccc21)C(=O)NCC(=O)N[C@@H](CCCNC(=N)N)C(=O)N[C@@H](CCC(=O)O)C(=O)N[C@@H](CC(=O)O)C(=O)NCC(=O)N[C@@H](CO)C(=O)N[C@@H](CCC(=O)O)C(=O)O [Compound 13, Fmoc-L-Trp-L-Leu-Gly-L-Arg-L-Glu-L-Asp-Gly-L-Ser-L-Glu-OH] (Fmoc-WLGREDGSE-OH) | < 10
16 | H-L-Trp-L-Leu-Gly-L-Arg-L-Glu-OH [Compound 24] | < 10
17 | H-WLGRQDGSE-OH [Compound 2] | 80
18 | H-WLIREDGSE-OH [Compound 6] | < 10
19 | H-WLGYEDGSE-OH [Compound 18] | 50
20 | H-WVREDGSE-OH [Compound 50] | < 10
21 | H-W[dNle]GREDGSE-OH [Compound 15] | < 10
22 | H-WPREDGSE-OH [Compound 10] | < 10
23 | H-WLGREDGSE-NH2 [Compound 12] | < 10

Row | Compound | Activity (macrophage chemotactic activity)
24 | H-WLGRED-OH [Compound 23] | 10
25 | CC(C)C[C@H](NC(=O)[C@H](Cc1c[nH]c2ccccc12)NC(=O)OCC1c2ccccc2-c2ccccc21)C(=O)NCC(=O)N[C@@H](CCCNC(=N)N)C(=O)N[C@H](CCC(=O)O)C(=O)N[C@@H](CC(=O)O)C(=O)O [Compound 34, Fmoc-L-Trp-L-Leu-Gly-L-Arg-D-Glu-L-Asp-OH] (Fmoc-WLGR[dE]D-OH) | < 10
26 | CC(C)C[C@H](NC(=O)[C@@H](Cc1c[nH]c2ccccc12)NC(=O)OCC1c2ccccc2-c2ccccc21)C(=O)NCC(=O)N[C@@H](CCCNC(=N)N)C(=O)N[C@@H](CCC(=O)O)C(=O)N[C@@H](CC(=O)O)C(=O)O [Compound 30, Fmoc-D-Trp-L-Leu-Gly-L-Arg-L-Glu-L-Asp-OH] (Fmoc-[dW]LGRED-OH) | < 10
27 | H-WAGREDGSE-OH [Compound 9] | < 10
28 | H-WLGREDG-OH [Compound 22] | < 10
29 | H-WLGRED-NH2 [Compound 26] | 10
30 | H-WLGRQNGSQ-NH2 [Compound 11, H-L-Trp-L-Leu-Gly-L-Arg-L-Gln-L-Asn-Gly-L-Ser-L-Gln-NH2] | < 10
31 | H-WLGREEGS-OH [Compound 38] | < 10
32 | H-WLGKEDGSE-OH [Compound 8] | < 10
33 | H-WLGREDGSQ-OH [Compound 28] | < 10
34 | CC(C)C[C@@H](NC(=O)[C@H](Cc1c[nH]c2ccccc12)NC(=O)OCC1c2ccccc2-c2ccccc21)C(=O)NCC(=O)N[C@@H](CCCNC(=N)N)C(=O)N[C@@H](CCC(=O)O)C(=O)N[C@@H](CC(=O)O)C(=O)O [Compound 32, Fmoc-L-Trp-D-Leu-Gly-L-Arg-L-Glu-L-Asp-OH] (Fmoc-W[dL]GRED-OH) | < 10
35 | H-WLGREDGAE-OH [Compound 20] | < 10
36 | CC(C)C[C@H](NC(=O)[C@H](Cc1c[nH]c2ccccc12)NC(=O)OCC1c2ccccc2-c2ccccc21)C(=O)NCC(=O)N[C@@H](CCCNC(=N)N)C(=O)N[C@@H](CCC(=O)O)C(=O)N[C@H](CC(=O)O)C(=O)O [Compound 39, Fmoc-L-Trp-L-Leu-Gly-L-Arg-L-Glu-D-Asp-OH] (Fmoc-WLGRE[dD]-OH) | 10
37 | H-MWLGRED-OH [Compound 47] | < 10
38 | H-WLGR[dE]DGSE-OH [Compound 41] | < 10
39 | H-WLGREDGSD-OH [Compound 4] | 10
40 | H-WLGLEDGSE-OH [Compound 49] | 10
41 | H-L-Glu-L-Asp-Gly-L-Ser-L-Glu-OH [Compound 25] | < 10
42 | H-WLGREDG[dS]E-OH [Compound 36] | < 10
43 | CC(C)C[C@H](NC(=O)[C@@H](N)Cc1c[nH]c2ccccc12)C(=O)NCC(=O)N[C@@H](CCCNC(=N)N)C(=O)O [Compound 27, H-L-Trp-L-Leu-Gly-L-Arg-OH] (H-WLGR-OH) | < 10
44 | H-WLGREDGSE-OH [Compound 1, H-L-Trp-L-Leu-Gly-L-Arg-L-Glu-L-Asp-Gly-L-Ser-L-Glu-OH] | 100
45 | H-WLGRENGSE-OH [Compound 5] | < 10
46 | H-[dW]LGREDGSE-OH [Compound 16] | < 10

same assay, conditions: dissolved in 5 mM MgCl2, diluted with 0.5% FCS-containing Hanks' medium

Row | Compound | macrophage chemotactic activity (in words)
47 | H-WLGREDGSE-OH [Compound 1, H-L-Trp-L-Leu-Gly-L-Arg-L-Glu-L-Asp-Gly-L-Ser-L-Glu-OH] | high activities

same assay, conditions: relative activity, Table 1 (culture supernatant of hybridoma MCF-A51 = 100.0, medium alone 10.0); 3 × 10^-8 M; dissolved in 5 mM MgCl2, diluted with 0.5% FCS-containing Hanks' medium

Row | Compound | Macrophage Chemotactic Activity
48 | H-WLGREDGSE-OH [Compound 1, H-L-Trp-L-Leu-Gly-L-Arg-L-Glu-L-Asp-Gly-L-Ser-L-Glu-OH] | 41.4
